Structures are written as SMILES. pIC50: −log10 of the molar value.

Our source for the IC50 values is US10047083B2, “Dihydropyrimidinoisoquinolinones and pharmaceutical compositions thereof for the treatment of inflammatory disorders” (GALAPAGOS NV, priority 2011, dated 2018).

One assay has as its target T1, GPR84 (Homo sapiens, UniProt Q9NQS5).
T1 construct: expressed in transfected cells; membranes used
Briefly: GTPγS binding assay (GPR84). The following applies: membranes from stable cell line over expressing GPR84; 3,3′ di indolylmethane at EC80. The assay is classed as biochemical. In short, it runs like this: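 Membranes (20 μg/well) from a stable GPR84-overexpressing line, pre-incubated with 0.1 μM GDP for 15 min at 4° C, mixed with 0.1 nM [35S]GTPγS and WGA SpA beads in 20 mM HEPES pH 7.4, 5 mM MgCl2, 250 mM NaCl, 0.05% BSA, 75 ug/mL saponin; 90 min at room temperature, then scintillation counting.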
In general terms: GTPγS resists hydrolysis and so accumulates on activated G proteins.

The next assay concerns human neutrophils. Briefly: Human neutrophil migration assay (embelin-induced). The assay is classed as cell-based. To be noted: neutrophils from human buffy coat, 30 min compound pre-incubation, migration towards embelin at EC80 for 1 h, ATPlite readout, read-out: human neutrophil migration inhibition (Neutrophils). Here is the method:
2. Cellular Assays 2.1. Human Neutrophil Migration Assay
The effect of agonists or antagonists for GPR84 can therefore be assayed in a neutrophil migration test. In the neutrophil migration assay, neutrophils, freshly isolated from buffy coats from human volunteers, are treated with a compound for 30 minutes. Subsequently, the neutrophils are transferred to the upper wells of a Corning HTS transwell 96 permeable support system, of which the lower wells are filled with a embelin solution at EC80 (concentration which gives 80% of the activity of GPR84). After 1 h of incubation, migration of the neutrophils towards embelin in the lower compartment can be quantified by measuring the ATP-content of the lower wells using the ATPlite luminescence ATP detection assay system (Perkin Elmer, Cat. No.: 436110).
A human buffy coat is diluted with an equal volume of ice cold DPBS. 20 mL of the diluted buffy coat is gently mixed with 4 mL of ACD buffer (140 mM citric acid, 200 mM sodium citrate and 220 mM dextrose). Then, 12 mL of the 6% dextran/0.9% NaCl solution (15 g dextran T2000 and 2.25 g NaCl dissolved in 250 mL H2O) is added to the mixture and the samples are inverted gently up to 20 times. The total volume was transferred to a new recipient and incubated at room temperature for 1 h for complete separation of the two phases to occur. The yellowish supernatant is then transferred to a clean centrifugation tube and centrifuged for 12 minutes at 1300 rpm and 4° C. After centrifugation, the supernatant is discarded and the remaining cell pellet is rapidly resuspended in 12 mL of ice-cold H2O for red blood cell lysis to occur. After 20 seconds, 4 mL of ice-cold 0.6 M KCl is added. Samples are mixed carefully and centrifuged for 6 minutes at 1300 rpm, 4° C. The supernatant is discarded and the red blood cell lysis procedure is repeated one more time. Subsequently, the cell pellet is resuspended in 4 mL of DPBS and layered over 5 mL of Lymphoprep (Nycomed Pharma, Cat. No.: 1114545) in a 15 mL centrifuge tube. After centrifugation for 12 min at 1300 rpm, 4° C., the supernatant is removed and the cell pellet, containing the neutrophils, is resuspended in 25 mL chemotaxis buffer (RPMI 1640 medium, supplemented with 10 mM HEPES; freshly made for each experiment)
A cell suspension of 8.9×10^6 cells per milliliter is prepared. 20 μL of compound solution in chemotaxis buffer is added to 180 μL cell suspension. The mixture is incubated at 37° C. for 30 minutes with intermediate resuspension of the cells after 15 minutes. Following this, 70 μL cell suspension is transferred to the upper compartment of a Corning HTS transwell 96 permeable support system with 5.0 μm pore size polycarbonate membrane (Corning, Cat. No.: 3387). The receiver well of the transwell system is then filled with 200 μL chemotaxis buffer containing compound and chemotactic agent (embelin). After incubation at 37° C. in 5% CO2 for 1 h, the upper plate of the transwell system is removed and the cell suspension in the receiver plate is transferred to a 96-well V-bottom plate. 50 μL of DPBS is added to the receiver plate to prevent remaining cells from drying out. The V-bottom plate is centrifuged for 6 minutes at 1500 rpm. The supernatant is removed and the cells are resuspended in 50 μL DPBS. The cells are then transferred back to the receiver plate of the transwell system. After this, 100 μL ATPlite solution (Perkin Elmer, Cat. No: 436110) was added to the cells. The plate is incubated for 10 minutes in the dark, while shaking. […] of cell lysate is then transferred to a white 96-well plate and luminescence is measured. The detected luminescent signal is considered as linearely related to the number of cells having migrated from the upper well to the receiver well.
(In general: In ATP-based viability assays light output follows the ATP content of the culture.)

T1 sequence (Q9NQS5 whole entry): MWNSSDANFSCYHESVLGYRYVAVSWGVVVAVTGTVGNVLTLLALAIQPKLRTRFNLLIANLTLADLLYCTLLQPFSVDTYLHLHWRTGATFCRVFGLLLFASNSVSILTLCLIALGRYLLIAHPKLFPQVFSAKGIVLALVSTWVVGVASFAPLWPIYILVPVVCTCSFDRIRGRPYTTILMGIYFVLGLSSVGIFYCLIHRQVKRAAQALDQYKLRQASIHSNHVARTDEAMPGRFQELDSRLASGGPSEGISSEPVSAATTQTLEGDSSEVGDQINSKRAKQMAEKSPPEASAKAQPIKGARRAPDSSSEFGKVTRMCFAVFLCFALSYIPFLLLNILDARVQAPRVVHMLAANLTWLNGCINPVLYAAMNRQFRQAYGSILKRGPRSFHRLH

Turning to `O=c1nc(OC[C@H]2COCCO2)cc2n1CCc1cc(CCC3(O)CCCC3)ccc1-2` [Compound 169, 2-((R)-1-[1,4]Dioxan-2-ylmethoxy)-9-[2-(1-hydroxy-cyclopentyl)-ethyl]-6,7-dihydro-pyrimido[6,1-a]isoquinolin-4-one], the results for the pIC50 on GPR84 and in the assay with human neutrophils were 6.30 to 7.00 and 7.00 to 11.00, respectively.
Taken in the same sequence, the figures for `CC(O)CCc1ccc2c(c1)CCn1c-2cc(OC[C@@H]2COCCO2)nc1=O` (stereo partly drawn) [Compound 140, 2-((S)-1-[1,4]dioxan-2-ylmethoxy)-9-(3-hydroxy-butyl)-6,7-dihydro-pyrimido[6,1-a]isoquinolin-4-one] were 6.30 to 7.00 and 7.00 to 11.00.
With `CC(C)C#Cc1ccc2c(c1)CCn1c-2cc(OCC2COCCO2)nc1=O` (stereo not drawn) [Compound 83, 2-([1,4]dioxan-2-ylmethoxy)-9-(3-methyl-but-1-ynyl)-6,7-dihydro-pyrimido[6,1-a]isoquinolin-4-one], the pIC50 on GPR84 and in the assay on human neutrophils was 7.00 to 11.00 throughout.
In the case of `CC(C)C(O)C#Cc1ccc2c(c1)CCn1c-2cc(OCC2COCCO2)nc1=O` (stereo not drawn) [Compound 90, 2-([1,4]Dioxan-2-ylmethoxy)-9-(3-hydroxy-4-methyl-pent-1-ynyl)-6,7-dihydro-pyrimido[6,1-a]isoquinolin-4-one], the pIC50 at GPR84 and in the assay on human neutrophils was 7.00 to 11.00 each time.
In the case of `O=c1nc(OC[C@@H]2COCCO2)cc2n1CCc1cc(OCC3CCOCC3)ccc1-2` [Compound 159, 2-((S)-1-[1,4]dioxan-2-ylmethoxy)-9-(tetrahydro-pyran-4-ylmethoxy)-6,7-dihydro-pyrimido[6,1-a]isoquinolin-4-one], the pIC50 on GPR84 and with human neutrophils was 7.00 to 11.00 throughout.
As for `COCCCCc1ccc2c(c1)CCn1c-2cc(OC[C@@H]2COCCO2)nc1=O` [Compound 174, 2-((S)-1-[1,4]Dioxan-2-ylmethoxy)-9-(4-methoxy-butyl)-6,7-dihydro-pyrimido[6,1-a]isoquinolin-4-one], the pIC50 at GPR84 and in the assay with human neutrophils was 7.00 to 11.00 in each case.
`O=c1nc(OC[C@@H]2COCCO2)cc2n1CCc1cc(CCC3CC3)ccc1-2` [Compound 123, 9-(2-cyclopropyl-ethyl)-2-((S)-1-[1,4]dioxan-2-ylmethoxy)-6,7-dihydropyrimido[6,1-a]isoquinolin-4-one]: the pIC50 on GPR84 and in the assay with human neutrophils was 7.00 to 11.00 in each case.
Take `O=c1nc(OCC2COCCO2)cc2n1CCc1cc(C#Cc3cccnc3)ccc1-2` (stereo not drawn) [Compound 41, 2-([1,4]dioxan-2-ylmethoxy)-9-pyridin-3-ylethynyl-6,7-dihydro-pyrimido[6,1-a]isoquinolin-4-one]: the pIC50 is 6.30 to 7.00 on GPR84 and 7.00 to 11.00 in the assay on human neutrophils.
Consider `O=c1nc(OCC2COCCO2)cc2n1CCc1cc(-c3ccc(N4CCOCC4)nc3)ccc1-2` (stereo not drawn) [Compound 62, 2-([1,4]dioxan-2-ylmethoxy)-9-(6-morpholin-4-yl-pyridin-3-yl)-6,7-dihydro-pyrimido[6,1-a]isoquinolin-4-one], for which the pIC50 at GPR84 and in the assay on human neutrophils was 7.00 to 11.00 in each case.
For the compound `CC(C)Oc1ccc(-c2ccc3c(c2)CCn2c-3cc(OCC3COCCO3)nc2=O)cn1` (stereo not drawn) [Compound 60, 2-([1,4]Dioxan-2-ylmethoxy)-9-(6-isopropoxy-pyridin-3-yl)-6,7-dihydro-pyrimido[6,1-a]isoquinolin-4-one], the pIC50 at GPR84 and in the assay on human neutrophils was 7.00 to 11.00 in each case.
Consider `CCCC(O)C#Cc1ccc2c(c1)CCn1c-2cc(OCC2COCCO2)nc1=O` (stereo not drawn) [Compound 98, 2-([1,4]dioxan-2-ylmethoxy)-9-(3-hydroxy-hex-1-ynyl)-6,7-dihydro-pyrimido[6,1-a]isoquinolin-4-one], for which the pIC50 on GPR84 and with human neutrophils was 7.00 to 11.00 in each case.
Turning to `CCC(C)(C)CNc1ccc2c(c1)CCn1c-2cc(OC[C@@H]2COCCO2)nc1=O` [Compound 126, 9-(2,2-dimethyl-butylamino)-2-((S)-1-[1,4]dioxan-2-ylmethoxy)-6,7-dihydro-pyrimido[6,1-a]isoquinolin-4-one], the pIC50 on GPR84 and with human neutrophils was 7.00 to 11.00 each time.
Take `O=c1nc(OCC2COCCO2)cc2n1CCc1cc(-c3ccc(N4CCCCC4)nc3)ccc1-2` (stereo not drawn) [Compound 68, 2-([1,4]dioxan-2-ylmethoxy)-9-(3,4,5,6-tetrahydro-2H-[1,2′]bipyridinyl-5′-yl)-6,7-dihydro-pyrimido[6,1-a]isoquinolin-4-one]: the pIC50 at GPR84 and with human neutrophils was 7.00 to 11.00 in each case.
Regarding `CC(C)(O)CCCc1ccc2c(c1)CCn1c-2cc(OC[C@@H]2COCCO2)nc1=O` [Compound 160, 2-((S)-1-[1,4]dioxan-2-ylmethoxy)-9-(4-hydroxy-4-methyl-pentyl)-6,7-dihydro-pyrimido[6,1-a]isoquinolin-4-one], the pIC50 on GPR84 and in the assay on human neutrophils was 6.30 to 7.00 in each case.
For the compound `CC(C)(C)C#Cc1ccc2c(c1)CCn1c-2cc(OCC2COCCO2)nc1=O` (stereo not drawn) [Compound 52, 9-(3,3-Dimethyl-but-1-ynyl)-2-([1,4]dioxan-2-ylmethoxy)-6,7-dihydro-pyrimido[6,1-a]isoquinolin-4-one], the pIC50 at GPR84 and in the assay with human neutrophils was 7.00 to 11.00 in each case.
Consider `CCOc1ncccc1-c1ccc2c(c1)CCn1c-2cc(OCC2COCCO2)nc1=O` (stereo not drawn) [Compound 69, 2-([1,4]dioxan-2-ylmethoxy)-9-(2-ethoxy-pyridin-3-yl)-6,7-dihydro-pyrimido[6,1-a]isoquinolin-4-one], for which the pIC50 on GPR84 and in the assay with human neutrophils was 7.00 to 11.00 each time.
Consider `COc1ncccc1-c1ccc2c(c1)CCn1c-2cc(OCC2COCCO2)nc1=O` (stereo not drawn) [Compound 56, 2-([1,4]dioxan-2-ylmethoxy)-9-(2-methoxy-pyridin-3-yl)-6,7-dihydro-pyrimido[6,1-a]isoquinolin-4-one], for which the pIC50 on GPR84 and with human neutrophils was 6.30 to 7.00 throughout.
`O=c1nc(OCC2COCCO2)cc2n1CCc1cc(CCC(O)c3cccnc3)ccc1-2` (stereo not drawn) [Compound 116, 2-([1,4]dioxan-2-ylmethoxy)-9-(3-hydroxy-3-pyridin-3-yl-propyl)-6,7-dihydro-pyrimido[6,1-a]isoquinolin-4-one]: the pIC50 at GPR84 was 6.30 to 7.00; in the assay with human neutrophils, 7.00 to 11.00.
In the case of `COc1cccc(-c2ccc3c(c2)CCn2c-3cc(OCC3COCCO3)nc2=O)c1OC` (stereo not drawn) [Compound 63, 9-(2,3-dimethoxy-phenyl)-2-([1,4]dioxan-2-ylmethoxy)-6,7-dihydro-pyrimido[6,1-a]isoquinolin-4-one], the figures for the pIC50 on GPR84 and in the assay on human neutrophils were 6.30 to 7.00 and 7.00 to 11.00, respectively.
Taken in the same sequence, the figures for `CC(C)c1nc(COc2ccc3c(c2)CCn2c-3cc(OCC3COCCO3)nc2=O)no1` (stereo not drawn) [Compound 80, 2-([1,4]dioxan-2-ylmethoxy)-9-(5-isopropyl-[1,2,4]oxadiazol-3-ylmethoxy)-6,7-dihydro-pyrimido[6,1-a]isoquinolin-4-one] were 7.00 to 11.00 and 7.00 to 11.00.
On the same counts, the results for `O=c1nc(OCC2COCCO2)cc2n1CCc1cc(CCCNc3ccccc3)ccc1-2` (stereo in doubt) [Compound 149, 2-((S)-1-[1,4]dioxan-2-ylmethoxy)-9-(3-phenylamino-propyl)-6,7-dihydro-pyrimido[6,1-a]isoquinolin-4-one] are 7.00 to 11.00 and 7.00 to 11.00.
